US4652638A, “3-O-acyl-4"-deoxydesmycosin derivatives” (Toyo Jozo Kabushiki Kaisha, priority 1983, dated 1987)
≈ marks a conversion by molar mass, not a printed value. Like-named read-outs stand apart in the source and are kept apart here.

Experiments:
Assay in all cases: MIC (minimum inhibitory concentration)
Type in all cases: cell-based
[1] = system: Staphylococcus aureus MS353 C36; settings: MS353C36
[2] = system: Staphylococcus epidermidis sp-al-1; settings: SPAL1
[3] = system: Streptococcus pyogenes N.Y.5
[4] = system: Streptococcus agalaactiae 1020
[5] = system: Staphylococcus aureus ATCC 6538P; settings: ATCC6538P
[6] = system: Corynebacterium diphtheriae P.Y.8
[7] = system: Staphylococcus aureus MS353 A0*; settings: * clinical isolate, macrolide-resistant bacteria A group
[8] = system: Micrococcus flavus ATCC 10240; settings: ATCC10240
Serratia marcescens = system: Serratia marcescens
[9] = system: Staphylococcus aureus MS353
Sarcina lutea ATCC 9341 = settings: Micrococcus luteus, ATCC9341
[10] = system: Pseudomonas aeruginosa IAM 1095; settings: IAM1095
[11] = system: Escherichia coli NIHJ-JC2; settings: NIHJJC2
[12] = system: Streptococcus faecalis 1501; settings: Enterococcus faecalis
[13] = system: Staphylococcus aureus 0127*
[14] = system: Staphylococcus aureus 0119*
[15] = system: Klebsiella pneumoniae ATCC 10031; settings: ATCC10031
[16] = system: Shigella flexineri type 3a; settings: TYPE3A
Proteus vulgaris OX19 = system: Proteus vulgaris OX19
Shigella sonnei E33 = system: Shigella sonnei E33
[17] = system: Streptococcus pyogenes 1022*
Escherichia coli B = system: Escherichia coli B
Salmonella typhosa H901 = settings: Salmonella enterica
[18] = system: Bacillus subtilis ATCC 6633; settings: ATCC6633
[19] = system: Salmonella enteritidis Gaertner; settings: Salmonella enterica
[20] = Sarcina lutea ATCC 9341, read-out: MIC
[21] = Escherichia coli NIHJ-JC2, read-out: MIC
[22] = Escherichia coli B, read-out: MIC
[23] = Staphylococcus epidermidis sp-al-1, read-out: MIC
[24] = Streptococcus agalaactiae 1020, read-out: MIC
[25] = Micrococcus flavus ATCC 10240, read-out: MIC
[26] = Pseudomonas aeruginosa IAM 1095, read-out: MIC
[27] = Streptococcus faecalis 1501, read-out: MIC
[28] = Klebsiella pneumoniae ATCC 10031, read-out: MIC
[29] = Bacillus subtilis ATCC 6633, read-out: MIC
[30] = Salmonella enteritidis Gaertner, read-out: MIC
[31] = Salmonella typhosa H901, read-out: MIC

SMILES | MIC [1] | MIC ([2]; Staphylococcus epidermidis) | MIC [3] | MIC ([4]; Streptococcus, 1020) | MIC [5] | MIC [6] | MIC [7] | MIC ([8]; Micrococcus flavus) | MIC (Serratia marcescens) | MIC [9] | MIC (Sarcina lutea ATCC 9341; [20]) | MIC ([10]; Pseudomonas aeruginosa) | MIC [12]; 1501 | MIC ([13]; Staphylococcus aureus) | MIC ([14]; Staphylococcus aureus) | MIC ([15]; Klebsiella pneumoniae) | MIC [16] | MIC (Proteus vulgaris OX19) | MIC (Shigella sonnei E33) | MIC (Salmonella typhosa H901; TYPHOSA) | further results
CC[C@H]1OC(=O)[C@H](C)[C@@H](O[C@H]2C[C@@](C)(OC)[C@@H](O)[C@H](C)O2)[C@H](C)[C@@H](O[C@@H]2O[C@H](C)C[C@H](N(C)C)[C@H]2O)[C@](C)(O)C[C@@H](C)C(=O)[C@H](C)[C@@H](O)[C@]1(C)O [Erythromycin, reference compound] | > 100 mg/L | 0.2 mg/L (≈ 0.273 µM) | ≤ 0.05 mg/L | ≤ 0.05 mg/L | 0.2 mg/L (≈ 0.273 µM) | ≤ 0.05 mg/L | > 100 mg/L | 0.1 mg/L (≈ 0.136 µM) | 100 mg/L (≈ 136 µM) | 0.2 mg/L (≈ 0.273 µM) | ≤ 0.05 mg/L | 100 mg/L (≈ 136 µM) | 0.2 mg/L (≈ 0.273 µM) | > 100 mg/L | > 100 mg/L | 6.3 mg/L (≈ 8.58 µM) | 12.5 mg/L (≈ 17 µM) | 50 mg/L (≈ 68.1 µM) | 100 mg/L (≈ 136 µM) | 100 mg/L (≈ 136 µM) | MIC [11, 21]: 100 mg/L (≈ 136 µM); MIC ([17]; Streptococcus pyogenes): > 100 mg/L; MIC (Escherichia coli B; [22]): > 100 mg/L; MIC ([18]; Bacillus subtilis): 0.1 mg/L (≈ 0.136 µM); MIC ([19]; ENTERITIDIS): 100 mg/L (≈ 136 µM)
CCCC(=O)OC1CC(=O)OC(CC)C(COC2OC(C)CC(OC)C2OC)C=C(C)C=CC(=O)C(C)CC(CC=O)C(OC2OC(C)C(O)C(N(C)C)C2O)C1C (centres unmarked) [Example 3, 3-O-butyryl-4"-deoxydesmycosin] | 0.2 mg/L (≈ 0.242 µM) |  | ≤ 0.05 mg/L |  | 0.4 mg/L (≈ 0.484 µM) |  |  |  |  | 0.4 mg/L (≈ 0.484 µM) | ≤ 0.05 mg/L |  |  |  |  |  | 50 mg/L (≈ 60.5 µM) |  | > 100 mg/L | > 100 mg/L | MIC [2, 23]: ≤ 0.05 mg/L; MIC [4, 24]: 0.1 mg/L (≈ 0.121 µM); MIC ([6]; read-out: MIC): ≤ 0.05 mg/L; MIC [8, 25]: ≤ 0.05 mg/L; MIC (Serratia marcescens; read-out: MIC): > 100 mg/L; MIC [10, 26]: > 100 mg/L; MIC [11, 21]: > 100 mg/L; MIC [12, 27]: 0.2 mg/L (≈ 0.242 µM); MIC ([13]; Staphylococcus aureus 0127, * clinical isolate, macrolide-resistant bacteria A group, read-out: MIC): 25 mg/L (≈ 30.3 µM); MIC ([14]; Staphylococcus aureus 0119, * clinical isolate, macrolide-resistant bacteria A group, read-out: MIC): 25 mg/L (≈ 30.3 µM); MIC [15, 28]: 25 mg/L (≈ 30.3 µM); MIC (Proteus vulgaris OX19; read-out: MIC): 50 mg/L (≈ 60.5 µM); MIC ([17]; Streptococcus pyogenes 1022, * clinical isolate, macrolide-resistant bacteria A group, read-out: MIC): 12.5 mg/L (≈ 15.1 µM); MIC (Escherichia coli B; [22]): > 100 mg/L; MIC [18, 29]: 0.1 mg/L (≈ 0.121 µM); MIC [19, 30]: > 100 mg/L
CCC1OC(=O)CC(OC(=O)CC(C)C)C(C)C(OC2OC(C)C(O)C(N(C)C)C2O)C(CC=O)CC(C)C(=O)C=CC(C)=CC1COC1OC(C)CC(OC)C1OC (centres unmarked) [Example 4, 3-O-isovaleryl-4"-deoxydesmycosin] | 0.4 mg/L (≈ 0.476 µM) |  | ≤ 0.05 mg/L |  | 0.4 mg/L (≈ 0.476 µM) |  | > 100 mg/L |  |  | 0.4 mg/L (≈ 0.476 µM) | ≤ 0.05 mg/L |  |  | > 100 mg/L | > 100 mg/L |  | 50 mg/L (≈ 59.5 µM) |  | > 100 mg/L | > 100 mg/L | MIC [2, 23]: 0.1 mg/L (≈ 0.119 µM); MIC [4, 24]: ≤ 0.05 mg/L; MIC ([6]; read-out: MIC): ≤ 0.05 mg/L; MIC [8, 25]: ≤ 0.05 mg/L; MIC (Serratia marcescens; read-out: MIC): > 100 mg/L; MIC [10, 26]: > 100 mg/L; MIC [11, 21]: > 100 mg/L; MIC [12, 27]: 0.4 mg/L (≈ 0.476 µM); MIC [15, 28]: 25 mg/L (≈ 29.8 µM); MIC (Proteus vulgaris OX19; read-out: MIC): 50 mg/L (≈ 59.5 µM); MIC ([17]; Streptococcus pyogenes): > 100 mg/L; MIC (Escherichia coli B; [22]): > 100 mg/L; MIC [18, 29]: 0.2 mg/L (≈ 0.238 µM); MIC [19, 30]: > 100 mg/L
CCC1OC(=O)CC(OC(=O)Cc2ccccc2)C(C)C(OC2OC(C)C(O)C(N(C)C)C2O)C(CC=O)CC(C)C(=O)C=CC(C)=CC1COC1OC(C)CC(OC)C1OC (centres unmarked) [Example 6, 3-O-phenylacetyl-4"-deoxydesmycosin] | 0.1 mg/L (≈ 0.114 µM) | ≤ 0.05 mg/L | 0.1 mg/L (≈ 0.114 µM) | 0.1 mg/L (≈ 0.114 µM) | 0.1 mg/L (≈ 0.114 µM) | ≤ 0.05 mg/L | > 100 mg/L | ≤ 0.05 mg/L | > 100 mg/L | 0.2 mg/L (≈ 0.229 µM) |  | > 100 mg/L | 0.4 mg/L (≈ 0.458 µM) | > 100 mg/L | > 100 mg/L | 25 mg/L (≈ 28.6 µM) | 50 mg/L (≈ 57.2 µM) | 50 mg/L (≈ 57.2 µM) | > 100 mg/L |  | MIC (Sarcina lutea ATCC 9341): ≤ 0.05 mg/L; MIC ([11]; Escherichia coli): > 100 mg/L; MIC (Escherichia coli B; Escherichia coli): > 100 mg/L; MIC (Salmonella typhosa H901; [31]): > 100 mg/L; MIC ([18]; Bacillus subtilis): 0.1 mg/L (≈ 0.114 µM); MIC ([19]; ENTERITIDIS): > 100 mg/L
CCC1OC(=O)CC(OC(=O)Cc2ccccc2)C(C)C(OC2OC(C)C(O)C(N(C)C)C2O)C(C)CC(C)C(=O)C=CC(C)=CC1COC1OC(C)CC(OC)C1OC (centres unmarked) [Example 10, 3-O-phenylacetyl-19-deformyl-4"-deoxydesmycosin] | 0.1 mg/L (≈ 0.118 µM) | ≤ 0.05 mg/L | ≤ 0.05 mg/L | 0.4 mg/L (≈ 0.473 µM) | 0.1 mg/L (≈ 0.118 µM) | ≤ 0.05 mg/L | > 100 mg/L | ≤ 0.05 mg/L | > 100 mg/L | 0.1 mg/L (≈ 0.118 µM) |  | > 100 mg/L | 3.1 mg/L (≈ 3.66 µM) | > 100 mg/L | > 100 mg/L | 12.5 mg/L (≈ 14.8 µM) | 25 mg/L (≈ 29.5 µM) | 100 mg/L (≈ 118 µM) | > 100 mg/L |  | MIC (Sarcina lutea ATCC 9341): ≤ 0.05 mg/L; MIC ([11]; Escherichia coli): > 100 mg/L; MIC (Escherichia coli B; Escherichia coli): > 100 mg/L; MIC (Salmonella typhosa H901; [31]): > 100 mg/L; MIC ([18]; Bacillus subtilis): 0.2 mg/L (≈ 0.236 µM); MIC ([19]; ENTERITIDIS): > 100 mg/L
CC[C@H]1OC(=O)C[C@@H](O)[C@H](C)[C@@H](O[C@@H]2O[C@H](C)[C@@H](O[C@H]3C[C@@](C)(O)[C@@H](O)[C@H](C)O3)[C@H](N(C)C)[C@H]2O)[C@@H](CC=O)C[C@@H](C)C(=O)/C=C/C(C)=C/[C@@H]1CO[C@@H]1O[C@H](C)[C@@H](O)[C@@H](OC)[C@H]1OC [Tylosin, reference compound] | 0.4 mg/L (≈ 0.437 µM) | 0.4 mg/L (≈ 0.437 µM) | 0.1 mg/L (≈ 0.109 µM) | 0.2 mg/L (≈ 0.218 µM) |  | ≤ 0.05 mg/L | > 100 mg/L | ≤ 0.05 mg/L | > 100 mg/L | 0.8 mg/L (≈ 0.873 µM) | ≤ 0.05 mg/L | > 100 mg/L | 0.8 mg/L (≈ 0.873 µM) | > 100 mg/L | > 100 mg/L | 50 mg/L (≈ 54.6 µM) | 50 mg/L (≈ 54.6 µM) | > 100 mg/L | > 100 mg/L | > 100 mg/L | MIC ([11]; Escherichia coli): > 100 mg/L; MIC ([17]; Streptococcus pyogenes): > 100 mg/L; MIC (Escherichia coli B; Escherichia coli): > 100 mg/L; MIC ([18]; Bacillus subtilis): 0.2 mg/L (≈ 0.218 µM); MIC ([19]; ENTERITIDIS): > 100 mg/L
